From the NIST ThermoML archive (doi:10.1021/je400473z)

Test: wn = mass fraction of the nth substance listed
Conditions: 101 kPa, Liquid, Vibrating tube method

CC#N [acetonitrile] + O
mass density [kg/m3]
Conditions | 293.15 K | 303.15 K | 313.15 K
w1 = 0.1 | 983.2 | 978.7 | 973.5
w1 = 0.2 | 964.2 | 958.2 | 951.6
w1 = 0.4 | 918.7 | 910.9 | 902.8
